Columns and labels:
Test in all cases: relative viability (nuclei count vs DMSO), 5 days (fraction); higher = more cells survive
[1] = compound: CNC(=O)c1cc(Oc2ccc(NC(=O)Nc3ccc(Cl)c(C(F)(F)F)c3)cc2)ccn1 [Sorafenib]
In short: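 A plate was accepted only when its control CV was below 25% and the cells had doubled at least once. Viability is defined from nuclear counts as treated wells divided by vehicle wells, with the median taken across plates. That median covers lung cancer cell lines grown in 1536-well plates, dosed by pinning at five √10-spaced library-drug concentrations, and counted in MetaXpress from 4× Hoechst images after 5 days.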

[2] = compound: CNC(=O)c1cc(Oc2ccc(NC(=O)Nc3ccc(Cl)c(C(F)(F)F)c3)cc2)ccn1 [Sorafenib] + COc1cc2c(Oc3ccc(NC(=O)C4(C(=O)Nc5ccc(F)cc5)CC4)cc3F)ccnc2cc1OCCCN1CCOCC1 [Foretinib] (partner 0.25 µM)
In short: (§1)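 Lung cancer cell lines in 1536-well plates were dosed by pin tool the day after seeding, either with one drug alone or with a fixed anchor-drug dose plus five library-drug doses (not always all listed) in √10 steps. After 5 days, cells were fixed and their nuclei stained in one step (final 0.05% Triton X-100, 1% formaldehyde, 1 ug/ml Hoechst), then counted on 4× images. Relative viability is the nuclei count in treated wells divided by that in vehicle wells. Values are medians of duplicate plates.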

[3] = compound: CNC(=O)c1cc(Oc2ccc(NC(=O)Nc3ccc(Cl)c(C(F)(F)F)c3)cc2)ccn1 [Sorafenib] + CC1(C)CCC(c2ccc(Cl)cc2)=C(CN2CCN(c3ccc(C(=O)NS(=O)(=O)c4ccc(N[C@H](CCN5CCOCC5)CSc5ccccc5)c(S(=O)(=O)C(F)(F)F)c4)cc3)CC2)C1 [Navitoclax] (partner 0.5 µM)
In short: as §1

[4] = compound: CNC(=O)c1cc(Oc2ccc(NC(=O)Nc3ccc(Cl)c(C(F)(F)F)c3)cc2)ccn1 [Sorafenib] + O=C(c1cc(Cc2n[nH]c(=O)c3ccccc23)ccc1F)N1CCN(C(=O)C2CC2)CC1 [Olaparib] (partner 8 µM)
In short: as §1

[5] = compound: CNC(=O)c1cc(Oc2ccc(NC(=O)Nc3ccc(Cl)c(C(F)(F)F)c3)cc2)ccn1 [Sorafenib] + C[C@@H](Oc1cc(-c2cnn(C3CCNCC3)c2)cnc1N)c1c(Cl)ccc(F)c1Cl [Crizotinib] (partner 1 µM)
In short: as §1

[6] = compound: CNC(=O)c1cc(Oc2ccc(NC(=O)Nc3ccc(Cl)c(C(F)(F)F)c3)cc2)ccn1 [Sorafenib] + Cc1nc(NC(=O)N2CCC[C@H]2C(N)=O)sc1-c1ccnc(C(C)(C)C(F)(F)F)c1 [Alpelisib] (partner 2 µM)
In short: as §1

[7] = compound: CNC(=O)c1cc(Oc2ccc(NC(=O)Nc3ccc(Cl)c(C(F)(F)F)c3)cc2)ccn1 [Sorafenib] + CS(=O)(=O)CCNCc1ccc(-c2ccc3ncnc(Nc4ccc(OCc5cccc(F)c5)c(Cl)c4)c3c2)o1 [Lapatinib] (partner 2 µM)
In short: as §1

[8] = compound: CNC(=O)c1cc(Oc2ccc(NC(=O)Nc3ccc(Cl)c(C(F)(F)F)c3)cc2)ccn1 [Sorafenib] + C[C@]1(O)C[C@@H](c2nc(-c3ccc4ccc(-c5ccccc5)nc4c3)c3c(N)nccn32)C1 [Linsitinib] (partner 1 µM)
In short: as §1

[9] = compound: CNC(=O)c1cc(Oc2ccc(NC(=O)Nc3ccc(Cl)c(C(F)(F)F)c3)cc2)ccn1 [Sorafenib] + CC(C)C[C@H](NC(=O)[C@H](Cc1ccccc1)NC(=O)c1cnccn1)B(O)O [Bortezomib] (partner 0.002 µM)
In short: as §1

[10] = compound: CNC(=O)c1cc(Oc2ccc(NC(=O)Nc3ccc(Cl)c(C(F)(F)F)c3)cc2)ccn1 [Sorafenib] + CS(=O)(=O)N1CCN(Cc2cc3nc(-c4cccc5[nH]ncc45)nc(N4CCOCC4)c3s2)CC1 [Pictilisib] (partner 1 µM)
In short: as §1

[11] = compound: CNC(=O)c1cc(Oc2ccc(NC(=O)Nc3ccc(Cl)c(C(F)(F)F)c3)cc2)ccn1 [Sorafenib] + Cc1cc(Nc2cc(N3CCN(C)CC3)nc(Sc3ccc(NC(=O)C4CC4)cc3)n2)n[nH]1 [Tozasertib] (partner 0.1 µM)
In short: as §1

[12] = compound: CNC(=O)c1cc(Oc2ccc(NC(=O)Nc3ccc(Cl)c(C(F)(F)F)c3)cc2)ccn1 [Sorafenib] + COc1cccc2cc(-c3nc([C@H]4CC[C@H](C(=O)O)CC4)n4ncnc(N)c34)[nH]c12 [OSI-027] (partner 0.5 µM)
In short: as §1

[13] = compound: CNC(=O)c1cc(Oc2ccc(NC(=O)Nc3ccc(Cl)c(C(F)(F)F)c3)cc2)ccn1 [Sorafenib] + CCNC(=O)c1noc(-c2cc(C(C)C)c(O)cc2O)c1-c1ccc(CN2CCOCC2)cc1 [Luminespib] (partner 0.01 µM)
In short: as §1

[14] = compound: CNC(=O)c1cc(Oc2ccc(NC(=O)Nc3ccc(Cl)c(C(F)(F)F)c3)cc2)ccn1 [Sorafenib] + N=C(N)NC(=N)NCCc1ccccc1 [Phenformin] (partner 250 µM)
In short: as §1

[15] = compound: CNC(=O)c1cc(Oc2ccc(NC(=O)Nc3ccc(Cl)c(C(F)(F)F)c3)cc2)ccn1 [Sorafenib] + Cc1nc(Nc2ncc(C(=O)Nc3c(C)cccc3Cl)s2)cc(N2CCN(CCO)CC2)n1 [Dasatinib] (partner 0.075 µM)
In short: as §1

[16] = compound: CNC(=O)c1cc(Oc2ccc(NC(=O)Nc3ccc(Cl)c(C(F)(F)F)c3)cc2)ccn1 [Sorafenib] + Nc1ncn([C@H]2C[C@H](O)[C@@H](CO)O2)c(=O)n1 [Decitabine] (partner 2 µM)
In short: as §1

[17] = compound: CNC(=O)c1cc(Oc2ccc(NC(=O)Nc3ccc(Cl)c(C(F)(F)F)c3)cc2)ccn1 [Sorafenib] + NC(=O)Nc1cc(-c2cccc(F)c2)sc1C(=O)N[C@H]1CCCNC1 [AZD7762] (partner 0.2 µM)
In short: as §1

[18] = compound: CNC(=O)c1cc(Oc2ccc(NC(=O)Nc3ccc(Cl)c(C(F)(F)F)c3)cc2)ccn1 [Sorafenib] + CC(=O)Nc1cccc(-n2c(=O)n(C3CC3)c(=O)c3c(Nc4ccc(I)cc4F)n(C)c(=O)c(C)c32)c1 [Trametinib] (partner 0.02 µM)
In short: as §1

[19] = compound: CNC(=O)c1cc(Oc2ccc(NC(=O)Nc3ccc(Cl)c(C(F)(F)F)c3)cc2)ccn1 [Sorafenib] + Nc1nc2[nH]cc(CCc3ccc(C(=O)N[C@@H](CCC(=O)O)C(=O)O)cc3)c2c(=O)[nH]1 [Pemetrexed] (partner 0.2 µM)
In short: as §1

[20] = compound: CNC(=O)c1cc(Oc2ccc(NC(=O)Nc3ccc(Cl)c(C(F)(F)F)c3)cc2)ccn1 [Sorafenib] + O=C(CCCCCCC(=O)Nc1ccccc1)NO [Vorinostat] (partner 1 µM)
In short: as §1

[21] = compound: CNC(=O)c1cc(Oc2ccc(NC(=O)Nc3ccc(Cl)c(C(F)(F)F)c3)cc2)ccn1 [Sorafenib] + CC(=O)c1c(C)c2cnc(Nc3ccc(N4CCNCC4)cn3)nc2n(C2CCCC2)c1=O [Palbociclib] (partner 0.5 µM)
In short: as §1

NCI-H1299 showed a relative viability ([1]; 0.08 µM) of 1.02, a relative viability ([1]; 0.253 µM) of 0.963 and a relative viability ([1]; 2.53 µM) of 0.957. For the same cell line, the relative viability ([1]; 8 µM) was 0.922, the relative viability ([2]; first compound 0.08 µM) was 1.09 and the relative viability ([2]; first compound 0.253 µM) was 1.08. The relative viability ([2]; first compound 2.53 µM) was 1.02, the relative viability ([2]; first compound 8 µM) was 1.05 and the relative viability ([3]; first compound 0.08 µM) was 1.07. For the same cell line, the relative viability ([3]; first compound 0.253 µM) was 1.05, the relative viability ([3]; first compound 2.53 µM) was 1.01 and the relative viability ([3]; first compound 8 µM) was 0.573. For the same cell line, the relative viability ([4]; first compound 0.08 µM) was 0.903, the relative viability ([4]; first compound 0.253 µM) was 0.894 and the relative viability ([4]; first compound 2.53 µM) was 0.882. For the same cell line, the relative viability ([4]; first compound 8 µM) was 0.537, the relative viability ([5]; first compound 0.08 µM) was 0.9 and the relative viability ([5]; first compound 0.253 µM) was 0.859. For the same cell line, the relative viability ([5]; first compound 2.53 µM) was 0.907, the relative viability ([5]; first compound 8 µM) was 0.688 and the relative viability ([6]; first compound 0.08 µM) was 1.06. It also gave a relative viability ([6]; first compound 0.253 µM) of 0.982, a relative viability ([6]; first compound 2.53 µM) of 0.962 and a relative viability ([6]; first compound 8 µM) of 0.877. The relative viability ([7]; first compound 0.08 µM) was 0.933, the relative viability ([7]; first compound 0.253 µM) was 0.86 and the relative viability ([7]; first compound 2.53 µM) was 0.874. It also gave a relative viability ([7]; first compound 8 µM) of 0.802, a relative viability ([8]; first compound 0.08 µM) of 0.947 and a relative viability ([8]; first compound 0.253 µM) of 0.88. For the same cell line, the relative viability ([8]; first compound 2.53 µM) was 0.875, the relative viability ([8]; first compound 8 µM) was 0.946 and the relative viability ([9]; first compound 0.08 µM) was 1.02. The relative viability ([9]; first compound 0.253 µM) was 1.04, the relative viability ([9]; first compound 2.53 µM) was 1.01 and the relative viability ([9]; first compound 8 µM) was 0.952. It also gave a relative viability ([10]; first compound 0.08 µM) of 0.867, a relative viability ([10]; first compound 0.253 µM) of 0.487 and a relative viability ([10]; first compound 2.53 µM) of 0.64. For the same cell line, the relative viability ([10]; first compound 8 µM) was 0.253.
In the case of NCI-H1623, the relative viability ([1]; 0.08 µM) is reported as 0.977, the relative viability ([1]; 0.253 µM) is reported as 0.898 and the relative viability ([1]; 2.53 µM) is reported as 1.06. For the same cell line, the relative viability ([1]; 8 µM) was 0.945, the relative viability ([2]; first compound 0.08 µM) was 1.06 and the relative viability ([2]; first compound 0.253 µM) was 0.852. The relative viability ([2]; first compound 2.53 µM) was 0.975, the relative viability ([2]; first compound 8 µM) was 0.776 and the relative viability ([11]; first compound 0.08 µM) was 0.431. It also gave a relative viability ([11]; first compound 0.253 µM) of 0.397, a relative viability ([11]; first compound 2.53 µM) of 0.476 and a relative viability ([11]; first compound 8 µM) of 0.411. The relative viability ([12]; first compound 0.08 µM) was 0.414, the relative viability ([12]; first compound 0.253 µM) was 0.411 and the relative viability ([12]; first compound 2.53 µM) was 0.5. The relative viability ([12]; first compound 8 µM) was 0.37, the relative viability ([13]; first compound 0.08 µM) was 0.544 and the relative viability ([13]; first compound 0.253 µM) was 0.366. It also gave a relative viability ([13]; first compound 2.53 µM) of 0.611, a relative viability ([13]; first compound 8 µM) of 0.342 and a relative viability ([14]; first compound 0.08 µM) of 0.651. For the same cell line, the relative viability ([14]; first compound 0.253 µM) was 0.562, the relative viability ([14]; first compound 2.53 µM) was 0.66 and the relative viability ([14]; first compound 8 µM) was 0.521. It also gave a relative viability ([15]; first compound 0.08 µM) of 0.537, a relative viability ([15]; first compound 0.253 µM) of 0.552 and a relative viability ([15]; first compound 2.53 µM) of 0.604. For the same cell line, the relative viability ([15]; first compound 8 µM) was 0.429.
NCI-H1648 showed a relative viability ([1]; 0.08 µM) of 0.921, a relative viability ([1]; 0.253 µM) of 0.53 and a relative viability ([1]; 2.53 µM) of 0.925. It also gave a relative viability ([1]; 8 µM) of 0.726, a relative viability ([11]; first compound 0.08 µM) of 0.566 and a relative viability ([11]; first compound 0.253 µM) of 0.4. The relative viability ([11]; first compound 2.53 µM) was 0.282, the relative viability ([11]; first compound 8 µM) was 0.405 and the relative viability ([16]; first compound 0.08 µM) was 0.521. For the same cell line, the relative viability ([16]; first compound 2.53 µM) was 0.682, the relative viability ([16]; first compound 8 µM) was 0.409 and the relative viability ([12]; first compound 0.08 µM) was 0.235. For the same cell line, the relative viability ([12]; first compound 0.253 µM) was 0.264, the relative viability ([12]; first compound 2.53 µM) was 0.247 and the relative viability ([12]; first compound 8 µM) was 0.247. It also gave a relative viability ([4]; first compound 0.08 µM) of 0.787, a relative viability ([4]; first compound 2.53 µM) of 0.76 and a relative viability ([4]; first compound 8 µM) of 0.721. The relative viability ([17]; first compound 0.08 µM) was 0.704, the relative viability ([17]; first compound 2.53 µM) was 0.74 and the relative viability ([17]; first compound 8 µM) was 0.498. The relative viability ([18]; first compound 0.08 µM) was 0.468, the relative viability ([18]; first compound 2.53 µM) was 0.454 and the relative viability ([18]; first compound 8 µM) was 0.258. The relative viability ([19]; first compound 0.08 µM) was 0.771, the relative viability ([19]; first compound 2.53 µM) was 0.708 and the relative viability ([19]; first compound 8 µM) was 0.731. The relative viability ([20]; first compound 0.08 µM) was 0.404, the relative viability ([20]; first compound 2.53 µM) was 0.482 and the relative viability ([20]; first compound 8 µM) was 0.321. For the same cell line, the relative viability ([21]; first compound 0.08 µM) was 0.307, the relative viability ([21]; first compound 2.53 µM) was 0.249 and the relative viability ([21]; first compound 8 µM) was 0.231.

Reference: the supplement of paper PMC10307832
